Test results: US4216221A, “1,3-Disubstituted (2-thio)ureas” (U C B, Societe Anonyme, priority 1977, dated 1980)
Read-outs that look alike come from different tables or passages of the source.

Legend:
[1] = spinal fixation time (spinal section 35 minutes after onset of asymmetry); type: in vivo, rat; conditions: for minimal effective dose: Rattus norvegicus
Excerpt: (b) The action on mnemic processes is also shown by the reduction of the spinal fixation time, a test which has been described in literature (T. J. CHAMBERLAIN et al., J.Neuro-Physiol.26, (1963,no. 4), 662-673; C. GIURGEA and F. MOURAVIEFF-LESUISSE, Arch.Int.Pharmacodyn.Therap.191, (1971,no. 2), 279) as an elementary memory model and which provides pharmacological reactivity in good correlation with clinical physiopathology. In the rat, after unilateral lesion of the cerebellum, there is a postural asymmetry of the hind paws. This asymmetry may persist, even after spinal section, if the animal has passed a sufficiently long time in this position.
This time, which is called the spinal fixation time, is 45 minutes under the experimental conditions applied here.
On the other hand, if the spinal section is performed before the expiry of this period of time, for example 35 minutes after the onset of the asymmetry, the latter disappears.
No animal treated with placebos retains asymmetry under these conditions.
Inversely, any product which allows the rats to retain the asymmetry (thus effecting spinal fixation) when the spinal section is performed after 35 minutes, is considered to be active.
The compounds were all tested at a dosage of […]. The minimum active doses were not sought, except for compound No. 1 and for piracetam. […] By "number of animals" is to be understood the number of animals which responded positively to the test, in relation to the number of animals tested at the indicated dose: […]

[2] = Toxicity by intraperitoneal administration (Irwin's test); type: in vivo
Excerpt: The compounds tested have a remarkably low toxicity.
*Dose which brings about the death of one animal out of eight in Irwin's
test (S. IRWIN, Gordon Research Conference on Medicinal Chemistry, Colby
Junior College, New London, 1959).

[3] = Toxicity when administered intravenously or orally (LD50); conditions: in vivo, rat
Excerpt: Furthermore, in the rat, the compounds tested also have a low toxicity when administered intravenously or orally, as shown by the results given in the following Table V: […]

[4] = Protection against aggressions of the hypoxic type (mortality induced by oxydipentonium chloride); type: in vivo, mice; conditions: Mus musculus, ip, 1 h, read-out: Proportion of survivors, Animals treated
Experimental: Protection against aggressions of the hypoxic type was shown by a reduction of mortality induced by a curarizer, the action time of which is short, namely oxydipentonium chloride (Brevatonal). At the doses used, this curarizer brings about respiratory depression which, in turn, gives rise to a hypoxi-hypercapnic syndrome.
A compound capable of protecting the brain during this short period of hypoxia ensures survival. The compounds are administered to groups of 10 mice one hour before the injection of the curarizer. At the same time, a control group of 10 mice received physiological salt solution before the curarizer. This test has also been developed in our laboratories (see S. LEVIS et al., Arch.Int.Pharmacodyn.Therap.93, (1953,no. 1), 46-54).

[5] = active avoidance test (memory retention; paw withdrawal reaction threshold); type: in vivo, rat; conditions: sc, rat, subcutaneous, tested 24 hours later
Excerpt: The pressure at which the withdrawal reaction takes place is called the reaction threshold. This threshold is expressed by the figure read on a scale graduated in cm of the apparatus used (Analgesy-meter Ugo Basile, Milan) and thus corresponds to the minimum pressure which brings about withdrawal when applied to the animal's paw.

**Q.** With `O=C(NCN1CCCC1=O)NCN1CCCC1=O` [Compound No. 1, 1,3-bis[(2-oxo-pyrrolidino)methyl]-urea] as the compound, how does the minimal effective dose ([1]; ip, read-out: Active dose mM/kg (minimum active dose)) read?
**A.** 100 µmol/kg

**Q.** And the minimal effective dose ([1]; ip, read-out: Active dose mg/kg (minimum active dose))?
**A.** 25 mg/kg

**Q.** And the responders at 100 µM, 25 mg/kg ([1]; ip, 35 min, rat, intraperitoneal, 0.1 mM/kg (25.0 mg/kg), read-out: Number of animals which responded positively to the test, in relation to the number of animals tested (converted))?
**A.** 63.6%

**Q.** And the “activity relative to piracetam (spinal fixation time)” value ([1]; rat, intraperitoneal)?
**A.** more active than piracetam

**Q.** And the “Dose mM/kg - mouse (dose which brings about the death of one animal out of eight in Irwin's test)” value [2]?
**A.** > 6 mM/kg

**Q.** And the “Dose mg/kg (dose which brings about the death of one animal out of eight in Irwin's test)” value ([2]; mouse)?
**A.** > 1530 mg/kg

**Q.** What about the LD50 ([3]; iv, i.v., read-out: LD50 mg/kg (rat)) of the same compound?
**A.** > 5600 mg/kg

**Q.** And the LD50 ([3]; iv, i.v., read-out: LD50 - mM/kg)?
**A.** > 22000 µmol/kg

**Q.** What about the LD50 ([3]; po, per os, read-out: LD50 mg/kg (rat)) of the same compound?
**A.** > 10000 mg/kg

**Q.** And the LD50 ([3]; po, per os, read-out: LD50 - mM/kg)?
**A.** > 39000 µmol/kg

**Q.** What about the responders at 32 µM, 32 µmol/kg [4] of the same compound?
**A.** 70%

**Q.** What about the responders at 100 µM, 100 µmol/kg [4] of the same compound?
**A.** 60%

**Q.** What about the responders at 2.5 mg/kg [4] of the same compound?
**A.** 33.3%

**Q.** And the minimal effective dose ([5]; read-out: Active dose mM/kg (minimum dose lowering the stimulus below 11 graduations; mM = millimole))?
**A.** 0.01 µmol/kg

**Q.** And the minimal effective dose ([5]; read-out: Active dose mg/kg (minimum dose lowering the stimulus below 11 graduations))?
**A.** 0.0025 mg/kg
